According to PMC7951137 (ACS chemical neuroscience, 2021):
Where two headings read alike, the source gives them in different places. [ ]: non-standard residue; d: D form.

How the values were obtained:
wildtype hMC4R [1] = target: T1, wildtype hMC4R (Homo sapiens, UniProt P32245); assay: cAMP AlphaScreen antagonist assay; assay type: cell-based
D189Q hMC4R [2] = target: T2, D189Q hMC4R (Homo sapiens, UniProt P32245, D189Q); assay: cAMP AlphaScreen antagonist assay; assay type: cell-based
D189A hMC4R = D189A hMC4R (Homo sapiens, UniProt P32245, D189A); assay: cAMP AlphaScreen antagonist assay; assay type: cell-based
D189K hMC4R = D189K hMC4R (Homo sapiens, UniProt P32245, D189K); assay: cAMP AlphaScreen antagonist assay; assay type: cell-based
wildtype hMC4R [3] = target: T1, wildtype hMC4R; assay: cAMP AlphaScreen agonist / inverse agonist assay; assay type: cell-based; details: WT hMC4R; basal = signal at 10^−12 M
D189E hMC4R = D189E hMC4R (Homo sapiens, UniProt P32245, D189E); assay: cAMP AlphaScreen agonist / inverse agonist assay; assay type: cell-based; details: for Inverse agonist percent decrease from basal activity: D189E hMC4R
D189N hMC4R = D189N hMC4R (Homo sapiens, UniProt P32245, D189N); assay: cAMP AlphaScreen agonist / inverse agonist assay; assay type: cell-based; details: for Inverse agonist percent decrease from basal activity: D189N hMC4R
D189Q hMC4R [4] = target: T2, D189Q hMC4R; assay: cAMP AlphaScreen agonist / inverse agonist assay; assay type: cell-based; details: for Inverse agonist percent decrease from basal activity: D189Q hMC4R
D189S hMC4R = D189S hMC4R (Homo sapiens, UniProt P32245, D189S); assay: cAMP AlphaScreen agonist / inverse agonist assay; assay type: cell-based; details: for Inverse agonist percent decrease from basal activity: D189S hMC4R
[5] = target: T3, human melanocortin-4 receptor (hMC4R), wild type, N-terminal FLAG-tagged (human, UniProt P32245 1-332); assay: radioligand binding
[6] = target: T3, human melanocortin-4 receptor (hMC4R), …; assay: radioligand binding; remark: listed apart in the source

T1 sequence (P32245 whole entry): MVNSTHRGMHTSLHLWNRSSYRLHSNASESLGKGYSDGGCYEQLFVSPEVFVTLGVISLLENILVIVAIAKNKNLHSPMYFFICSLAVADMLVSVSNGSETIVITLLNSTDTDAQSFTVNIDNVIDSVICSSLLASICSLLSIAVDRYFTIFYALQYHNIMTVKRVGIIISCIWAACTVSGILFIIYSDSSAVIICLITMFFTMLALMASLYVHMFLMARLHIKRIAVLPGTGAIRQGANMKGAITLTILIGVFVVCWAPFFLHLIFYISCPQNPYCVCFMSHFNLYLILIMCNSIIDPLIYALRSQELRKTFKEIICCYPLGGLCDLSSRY
T3 sequence (P32245 whole entry): as above
Sequence of D189A hMC4R (P32245 whole entry D189A): as the sequence (P32245 whole entry) above, with D189A counted along it
Sequence of D189K hMC4R (P32245 whole entry D189K): as the sequence (P32245 whole entry) above, with D189K counted along it
T2 sequence (P32245 whole entry D189Q): as the sequence (P32245 whole entry) above, with D189Q counted along it
Sequence of D189S hMC4R (P32245 whole entry D189S): as the sequence (P32245 whole entry) above, with D189S counted along it
Sequence of D189E hMC4R (P32245 whole entry D189E): as the sequence (P32245 whole entry) above, with D189E counted along it
Sequence of D189N hMC4R (P32245 whole entry D189N): as the sequence (P32245 whole entry) above, with D189N counted along it

C[C@@H]1NC(=O)[C@H](CO)NC(=O)[C@H](Cc2ccccc2)NC(=O)[C@H](Cc2ccccc2)NC(=O)[C@H](CCCNC(=N)N)NC(=O)[C@@H]2CCCN2C(=O)[C@H]2CCCN2C(=O)[C@H](Cc2ccccc2)NC1=O [MDE3–85c, c[Pro-Arg-Phe-Phe-Ser-Ala-Phe-DPro]]
Kb (wildtype hMC4R [1]): 10 nM
Kb (D189Q hMC4R [2]): 158 nM
Kb (D189A hMC4R): 1000 nM
Kb (D189K hMC4R): 501 nM
Inverse agonist percent decrease from basal signal (wildtype hMC4R [3]): −25%
EC50 (D189E hMC4R): 11 ± 4 nM
Inverse agonist percent decrease from basal activity (D189E hMC4R): −25%
EC50 (D189N hMC4R): 100 ± 40 nM
Inverse agonist percent decrease from basal activity (D189N hMC4R): −20%
Inverse agonist percent decrease from basal activity (D189Q hMC4R [4]): −35%
EC50 (D189S hMC4R): 600 ± 400 nM
Inverse agonist percent decrease from basal activity (D189S hMC4R): −25%

CC[C@@H]1NC(=O)[C@H](Cc2ccccc2)NC(=O)[C@H](Cc2ccccc2)NC(=O)[C@H](CCCNC(=N)N)NC(=O)[C@@H]2CCCN2C(=O)[C@H]2CCCN2C(=O)[C@H](Cc2ccccc2)NC(=O)[C@H](C)NC1=O [MDE3–119-2c, c[Pro-Arg-Phe-Phe-Abu-Ala-Phe-DPro]]
Inverse agonist percent decrease from basal signal (wildtype hMC4R [3]): −15%

C[C@@H]1NC(=O)[C@H](CCC(=O)O)NC(=O)[C@H](Cc2ccccc2)NC(=O)[C@H](Cc2ccccc2)NC(=O)[C@H](CCCNC(=N)N)NC(=O)[C@@H]2CCCN2C(=O)[C@H]2CCCN2C(=O)[C@H](Cc2ccccc2)NC1=O [MDE3–119-5c, c[Pro-Arg-Phe-Phe-Glu-Ala-Phe-DPro]]
Kb (wildtype hMC4R [1]): 100 nM
Kb (D189Q hMC4R [2]): 2000 nM
Kb (D189A hMC4R): > 3160 nM
Kb (D189K hMC4R): > 3160 nM
Inverse agonist percent decrease from basal signal (wildtype hMC4R [3]): −35%
EC50 (D189E hMC4R): 1100 nM
Inverse agonist percent decrease from basal activity (D189E hMC4R): −40%
EC50 (D189N hMC4R): 3000 nM
Inverse agonist percent decrease from basal activity (D189N hMC4R): −5%
EC50 (D189Q hMC4R [4]): 7000 nM
Inverse agonist percent decrease from basal activity (D189Q hMC4R [4]): −40%

C[C@@H]1NC(=O)[C@@H](CN)NC(=O)[C@H](Cc2ccccc2)NC(=O)[C@H](Cc2ccccc2)NC(=O)[C@H](CCCNC(=N)N)NC(=O)[C@@H]2CCCN2C(=O)[C@H]2CCCN2C(=O)[C@H](Cc2ccccc2)NC1=O [MDE3–119-7c, c[Pro-Arg-Phe-Phe-DDap-Ala-Phe-DPro]]
Inverse agonist percent decrease from basal signal (wildtype hMC4R [3]): −30%
Inverse agonist percent decrease from basal activity (D189E hMC4R): −35%
Inverse agonist percent decrease from basal activity (D189N hMC4R): −15%
Inverse agonist percent decrease from basal activity (D189Q hMC4R [4]): −40%
Inverse agonist percent decrease from basal activity (D189S hMC4R): −30%

C[C@@H]1NC(=O)[C@H](CN)NC(=O)[C@H](Cc2ccccc2)NC(=O)[C@H](Cc2ccccc2)NC(=O)[C@H](CCCNC(=N)N)NC(=O)[C@@H]2CCCN2C(=O)[C@H]2CCCN2C(=O)[C@H](Cc2ccccc2)NC1=O [MDE3–119-8c, c[Pro-Arg-Phe-Phe-Dap-Ala-Phe-DPro]]
Inverse agonist percent decrease from basal signal (wildtype hMC4R [3]): −50%
Inverse agonist percent decrease from basal activity (D189E hMC4R): −55%
Inverse agonist percent decrease from basal activity (D189N hMC4R): −15%
Inverse agonist percent decrease from basal activity (D189Q hMC4R [4]): −45%
Inverse agonist percent decrease from basal activity (D189S hMC4R): −35%

C[C@@H]1NC(=O)[C@H](C)NC(=O)[C@H](Cc2ccccc2)NC(=O)[C@H](Cc2ccccc2)NC(=O)[C@H](CCCNC(=N)N)NC(=O)[C@@H]2CCCN2C(=O)[C@H]2CCCN2C(=O)[C@H](Cc2ccccc2)NC1=O [MDE3–154c, c[Pro-Arg-Phe-Phe-Ala-Ala-Phe-DPro]]
Kb (D189Q hMC4R [2]): 251 nM
Kb (D189A hMC4R): 2510 nM
Kb (D189K hMC4R): 794 nM
Inverse agonist percent decrease from basal signal (wildtype hMC4R [3]): −35%
EC50 (D189E hMC4R): 16 ± 2 nM
Inverse agonist percent decrease from basal activity (D189E hMC4R): −25%
Inverse agonist percent decrease from basal activity (D189Q hMC4R [4]): −25%

C[C@@H]1NC(=O)[C@H](CC(N)=O)NC(=O)[C@H](Cc2ccccc2)NC(=O)[C@H](Cc2ccccc2)NC(=O)[C@H](CCCNC(=N)N)NC(=O)[C@@H]2CCCN2C(=O)[C@H]2CCCN2C(=O)[C@H](Cc2ccccc2)NC1=O [MDE5–108-10c, c[Pro-Arg-Phe-Phe-Asn-Ala-Phe-DPro]]
Inverse agonist percent decrease from basal signal (wildtype hMC4R [3]): −30%
Inverse agonist percent decrease from basal activity (D189E hMC4R): −25%
Inverse agonist percent decrease from basal activity (D189N hMC4R): −20%
Inverse agonist percent decrease from basal activity (D189Q hMC4R [4]): −45%
Inverse agonist percent decrease from basal activity (D189S hMC4R): −20%

c[Pro-Arg-Phe-Phe-His-Ala-Phe-DPro] [MDE3–119-13c]
Inverse agonist percent decrease from basal signal (wildtype hMC4R [3]): −30%
Inverse agonist percent decrease from basal activity (D189E hMC4R): −15%
Inverse agonist percent decrease from basal activity (D189Q hMC4R [4]): −30%

cyclo(PRFFDAF[dP]) [MDE3–119-4c]
IC50 [5]: 3600 nM
IC50 [6]: 1300 nM

cyclo(PRFFEAF[dP]) [MDE3–119-5c]
IC50 [5]: 2500 nM
IC50 [6]: 1400 nM
